Structures are written as SMILES.

Test [1] deals with thiobarbituric acid reactive substances TBARS. Put plainly: Adjuvant induced arthritis in rats: TBARS in serum. The class given is in vivo, Wistar rats. The following applies: serum of arthritic rats (n=8), once daily for 21 days, mean ± SEM. As for the experimental part:
(§1) Anti-inflammatory markers and antioxidant capacity were determined. Female Wistar rats with a body weight between 150 and 200 g were exposed to adjuvant induced arthritis according to Pearson et al. (1956). At day 0, the animals were administered 0.1 ml of Freund's Adjuvant (FCA) in the right hind paw, by subplantar injection. The animals were randomly divided into 12 groups of 8 animals each.
(§2) All extracts or solubilizates were administered orally once daily from day 0 through day 21 following the vaccination with the adjuvant. After day 21, the animals were killed and serum samples were prepared and stored at −80° C. Measurements were made of myeloperoxidase (MPO), C-reactive protein (CRP), total antioxidant capacity (TAC), and thiobarbituratic acid reactive substances (TBARS).
(§3) Oxidative stress is one of the major factors contributing to joint destruction in rheumatoid arthritis (RA). An increase in the production of reactive oxygen species (ROS) leads to a reduced supply of endogenous antioxidants and ultimately results in the destruction of cells. The neutrophil granulocytes released in the rheumatoid joint produce free oxygen radicals which cause increased formation of lipid peroxides manifesting in an increase in serum TBARS. […]

The subject of test [2] is total antioxidant capacity (TAC). Put plainly: Adjuvant induced arthritis in rats: total antioxidant capacity (TAC) in serum. The class given is in vivo, Wistar rats. The following applies: serum of arthritic rats (n=8), once daily for 21 days, mean ± SEM. The procedure:
as §1, §2, §3

The test system of another test is myeloperoxidase (MPO). In words: Adjuvant induced arthritis in rats: serum MPO. The class given is in vivo, Wistar rats. Particulars: arthritic rats, 5 mg/kg orally once daily day 0 through day 21; diclofenac 3 mg/kg as reference. The procedure: as §1, §2
The subject of test [3] is WTD fed mice. In words: Intraperitoneal glucose tolerance test (ipGTT) in WTD mice. The class given is in vivo, mice of the strain C57BL/6. Particulars: 2.5 mg/kg daily, after seven weeks. As for the experimental part: (§4) The medical faculty of Friedrich-Alexander University Erlangen Nürnberg (FAU) conducted studies on the effects of xanthohumol on body weight. A dose of 2.5 mg/kg body weight of xanthohumol was administered daily. For this purpose, a solubilizate of the present Applicant was used. It was prepared from 100 g “Xantho-Flav Pure”, 150 g of 96% ethanol, and 750 g of polysorbate 80. For adjusting the concentration to 0.375 mg/ml, the solubilizate was diluted with double-distilled water (“ddH2O”). The corresponding data are marked by “s-XN” in the accompanying figures.
(§5) For comparison, similar experiments were conducted with the same dose of native xanthohumol. For dissolving the native xanthohumol, an aqueous solution of methylhydroxypropyl cellulose (MHPC, 0.2%, Methocel E4M Premium CR, Hypromellose 2910 USP, Fragron Inc., Minnesota, USA) was used. The corresponding data are marked by “n-XN”. […]
After seven weeks of administration of the solubilizate or of native xanthohumol, an intraperitoneal glucose tolerance test (ipGTT) was carried out. […] The concentration of glucose in the blood was measured in samples that were taken from the tail vein prior to glucose administration (fasting glucose) as well as 30, 60, 80, and 120 minutes thereafter. […]

A further test relates to type 1 collagen (COL1A1). Put plainly: Hepatic expression of type 1 collagen in WTD mice. It counts as in vivo, mice of the strain C57BL/6. Particulars: 2.5 mg/kg daily, 8 weeks. From the text:
(§6) Male mice of the strain C57BL/6 at an age of 8 weeks either received usual diet or were fed according to the “Western type diet” consisting of 15% pork lard, 15% beef tallow, 4% palmitic acid, 4% stearic acid, 0.2% cholesterol, and 30% sucrose. The control group (CTRL), which received the usual diet, was given an aqueous solution of methylhydroxypropyl cellulose (MHPC, 0.2%, Methocel™ E4M prem) (“vehicle” VH) as a therapy, as was the case with the “Western type diet” group (“WTD”).
(§7) Other groups received the xanthohumol solubilizate (“s-XN”) of the present Applicant or native xanthohumol (“n-XN”) in addition to the WTD. The therapy was conducted over 8 weeks.
(§8) RNA isolation from liver tissue, reverse transcription and quantitative real-time polymerase chain reaction (PCR) analysis were carried out using the “LightCycler” technology (Roche) and specific tests for primers, as described in Hellebrand et al.: “Promoter hypermethylation is causing functional relevant downregulation of methylthioadenosine phosphorylase (MTAP) expression in hepatocellular carcinoma”, Carcinogenesis 2006; 27:64-72.
Type 1 collagen (COL1A1) is the most important extracellular matrix protein in liver fibrosis, both quantitatively and qualitatively.

The subject of test [4] is alpha-smooth muscle actin (α-SMA). Put plainly: Hepatic expression of alpha-smooth muscle actin in WTD mice (qPCR, immunohistochemistry). The class given is in vivo, mice of the strain C57BL/6. Particulars: 2.5 mg/kg daily, 8 weeks.
Description: as §6, §7, §8
The α-SMA protein is an established marker of activated hepatic stellate cells (HSC) which trigger liver cirrhosis. An immunohistochemical analysis of the α-SMA protein confirmed that WTD causes significant activation of HSC (FIG. 4B).

Test [5] relates to WTD fed mice. In words: Liver weight, hepatic triglyceride level and histology (steatosis) in WTD mice. It counts as in vivo, mice of the strain C57BL/6. The following applies: 2.5 mg/kg daily, 8 weeks. The procedure:
as §4, §5
To quantify liver lipids, the latter were extracted and the amount of triglycerides (“hepatic triglyceride level”) was determined using a “GPO-triglyceride kit” (Sigma, Deisenhofen, Germany), as described in Wobser et al.: “Lipid accumulation in hepatocytes induces fibrogenic activation of hepatic stellate cells”, Cell Res 2009; 19:996-1005. […]

The subject of a further test is C-reactive protein (CRP). Put plainly: Adjuvant induced arthritis in rats: serum CRP. The class given is in vivo, Wistar rats. The following applies: arthritic rats, 5 mg/kg orally once daily day 0 through day 21; diclofenac 3 mg/kg as reference. As for the experimental part:
as §1, §2

For the compound `O=C(O)Cc1ccccc1Nc1c(Cl)cccc1Cl` [Diclofenac, diclofenac], the TBARS in test [1] is 7.93 ± 0.84 nmol/L. The TAC in test [2] amounted to 82.08 ± 2.96 nmol/µL.

For `COc1cc(O)c(CC=C(C)C)c(O)c1C(=O)/C=C/c1ccc(O)cc1` [native xanthohumol, xanthohumol], in test [1], the TBARS was determined as 11.42 ± 1.16 nmol/L. The TAC in test [2] was 63.71 ± 1.02 nmol/µL. For the same compound, the “effect on the serum concentration of MPO, in words” value in the test on myeloperoxidase (MPO) was “only a slight effect”. Besides, the fasting glucose values result in the test on WTD fed mice [3] (12 hours of fasting) is recorded as “did not bring about this effect”. In addition, the glucose tolerance result in the test on WTD fed mice [3] (ipGTT 3 mg glucose per gram body weight) is on record as “did not bring about this effect”. Moreover, the “WTD-induced expression of type 1 collagen” value with type 1 collagen (COL1A1) is on record as “hardly any effects”. Moreover, the “WTD-induced expression of α-SMA” value in test [4] was “hardly any effects”. In addition, the “steatosis (liver appearance, histological examinations)” value with WTD fed mice [5] is listed as “accumulation of fat in the liver (steatosis)”. Also, the “effect on CRP serum level, in words” value in the test with C-reactive protein (CRP) is given as “effect comparable to that of diclofenac”.
